Test results published in BindingDB's records for doi:10.1016/s0960-894x(01)00687-4 (Merck Research Laboratories, 2001).

Test: Inhibition of rate of ADP-stimulated gel-filtered human platelet aggregation mediated by integrin alphaIIb beta-3 in PLAGGIN assay

Row | IC50 | Compound
1 | > 10 µM | O=C(O)C[C@H](NC(=O)CN1CCCC(CCc2ccc3c(n2)NCCC3)C1=O)c1cccnc1 (stereo partly drawn) [3-(2-{2-Oxo-3-[2-(5,6,7,8-tetrahydro-[1,8]naphthyridin-2-yl)-ethyl]-piperidin-1-yl}-acetylamino)-3-(S)-pyridin-3-yl-propionic acid]
2 | > 10 µM | C#C[C@H](CC(=O)O)NC(=O)CNC(=O)CCCc1ccc2c(n1)NCCC2 [(S)-3-[2-(4-5,6,7,8-Tetrahydro-[1,8]naphthyridin-2-yl-butyrylamino)-acetylamino]-pent-4-ynoic acid]
3 | > 10 µM | O=C(O)CCNC(=O)CNC(=O)CCCc1ccc2c(n1)NCCC2 [3-[2-(4-5,6,7,8-Tetrahydro-[1,8]naphthyridin-2-yl-butyrylamino)-acetylamino]-propionic acid]
4 | > 10 µM | O=C(O)C[C@H](NC(=O)CN1CC[C@H](CCc2ccc3c(n2)NCCC3)C1=O)c1cccnc1 [3-(2-{(S)-2-Oxo-3-[2-(5,6,7,8-tetrahydro-[1,8]naphthyridin-2-yl)-ethyl]-pyrrolidin-1-yl}-acetylamino)-3-(S)-pyridin-3-yl-propionic acid]
5 | > 10 µM | C#C[C@H](CC(=O)O)NC(=O)CN1CC[C@H](CCc2ccc3c(n2)NCCC3)C1=O [(S)-3-(2-{(S)-2-Oxo-3-[2-(5,6,7,8-tetrahydro-[1,8]naphthyridin-2-yl)-ethyl]-pyrrolidin-1-yl}-acetylamino)-pent-4-ynoic acid]
6 | > 10 µM | O=C(O)C[C@H](NC(=O)CN1CC[C@@H](CCc2ccc3c(n2)NCCC3)C1=O)c1cccnc1 [(S)-3-(2-{(R)-2-Oxo-3-[2-(5,6,7,8-tetrahydro-[1,8]naphthyridin-2-yl)-ethyl]-pyrrolidin-1-yl}-acetylamino)-3-pyridin-3-yl-propionic acid]
7 | > 10 µM | O=C(O)C[C@H](NC(=O)CNC(=O)CCCc1ccc2c(n1)NCCC2)c1cccnc1 [(S)-3-Pyridin-3-yl-3-[2-(4-5,6,7,8-tetrahydro-[1,8]naphthyridin-2-yl-butyrylamino)-acetylamino]-propionic acid]
8 | 7.1 µM | O=C(O)C[C@H](NC(=O)CN1CCN(CCc2ccc3c(n2)NCCC3)C1=O)c1cccnc1 [(S)-3-(2-{2-Oxo-3-[2-(5,6,7,8-tetrahydro-[1,8]naphthyridin-2-yl)-ethyl]-imidazolidin-1-yl}-acetylamino)-3-pyridin-3-yl-propionic acid]
